Consider 37 compounds from US11344554B2, “Animal and human anti-malarial agents” (Celgene Corporation, priority 2016, dated 2022).

The assay has as its system Plasmodium falciparum. Nature of the assay: Plasmodium falciparum in vitro [3H]-hypoxanthine parasite growth inhibition assay. It counts as cell-based. The note with it: Erythrocyte, read-out: Act Class (IC50 activity level).
[1] abbreviates: P. falciparum asexual blood stage parasites in human erythrocytes, [3H]-hypoxanthine uptake.

Like-named read-outs stand apart in the source and are kept apart here.

As a reminder, the IC50 is the concentration at which inhibition is half-maximal. As to `CC(C)(C)Nc1ncc2nc(Nc3cccc(C(F)(F)F)c3)n(C3CC4CNCC4C3)c2n1` (stereo not shown) [Cpd 95, N2-tert-butyl-9-(octahydrocyclopenta[c]pyrrol-5-yl)-N8-(3-(trifluoromethyl)phenyl)-9H-purine-2,8-diamine], the IC50 under setting [1] was 0.2 to 0.5 µM. On the same count and under the same terms, next, `CC1(Nc2ncc3nc(Nc4ccc(Cl)c(C(F)(F)F)c4)n(C4CCNCC4)c3n2)CC1` [Cpd 89, N8-(4-chloro-3-(trifluoromethyl)phenyl)-N2-(1-methylcyclopropyl)-9-(piperidin-4-yl)-9H-purine-2,8-diamine]: 0.2 to 0.5 µM; `CC(C)(C)Nc1ncc2nc(Nc3cccc(C(F)(F)F)c3)n(C3CCN(CCN)CC3)c2n1` [Cpd 4, 9-(1-(2-aminoethyl)piperidin-4-yl)-N2-tert-butyl-N8-(3-(trifluoromethyl)phenyl)-9H-purine-2,8-diamine]: less than 0.1 µM. Same read-out and setting: then `CC(C)(C)Nc1ncc2nc(Nc3ccc(Cl)c(Cl)c3)n(C3CCNCC3)c2n1` [Cpd 6, N2-tert-butyl-N8-(3,4-dichlorophenyl)-9-(piperidin-4-yl)-9H-purine-2,8-diamine], with less than 0.1 µM. As to `Fc1cc(Cl)cc(Nc2nc3cnc(NC4CC4)nc3n2C2CCNCC2)c1` [Cpd 62, N8-(3-chloro-5-fluorophenyl)-N2-cyclopropyl-9-(piperidin-4-yl)-9H-purine-2,8-diamine], the IC50 under setting [1] lay within 0.1 to 0.2 µM. As for `CC1(Nc2ncc3nc(Nc4ccc(Cl)c(C(F)(F)F)c4)n(C4CCNCC4)c3n2)CCCC1` [Cpd 90, N8-(4-chloro-3-(trifluoromethyl)phenyl)-N2-(1-methylcyclopentyl)-9-(piperidin-4-yl)-9H-purine-2,8-diamine], the IC50 under setting [1] was 0.1 to 0.2 µM. Same read-out and setting: next, `CC1(Nc2ncc3nc(Nc4ccc(C(F)(F)F)c(Cl)c4)n(C4CCNCC4)c3n2)CC1` [Cpd 93, N8-(3-chloro-4-(trifluoromethyl)phenyl)-N2-(1-methylcyclopropyl)-9-(piperidin-4-yl)-9H-purine-2,8-diamine]: 0.2 to 0.5 µM; `CC(C)(C)Nc1ncc2nc(Nc3cc(Cl)cc(C(F)(F)F)c3)n(C3CCNCC3)c2n1` [Cpd 27, N2-tert-butyl-N8-(3-chloro-5-(trifluoromethyl)phenyl)-9-(piperidin-4-yl)-9H-purine-2,8-diamine]: less than 0.1 µM; `CCN1CCC(n2c(Nc3ccc(Cl)c(Cl)c3)nc3cnc(NC(C)(C)C)nc32)CC1` [Cpd 37, N2-tert-butyl-N8-(3,4-dichlorophenyl)-9-(1-ethylpiperidin-4-yl)-9H-purine-2,8-diamine]: less than 0.1 µM. Regarding `CC1(Nc2ncc3nc(Nc4cc(Cl)cc(Cl)c4)n(C4CCNCC4)c3n2)CC1` [Cpd 41, N8-(3,5-dichlorophenyl)-N2-(1-methylcyclopropyl)-9-(piperidin-4-yl)-9H-purine-2,8-diamine], the IC50 under setting [1] was less than 0.1 µM. In the case of `FC(F)(F)c1ccc(Nc2nc3cnc(NC4CCC4)nc3n2C2CCNCC2)cc1Cl` [Cpd 83, N8-(3-chloro-4-(trifluoromethyl)phenyl)-N2-cyclobutyl-9-(piperidin-4-yl)-9H-purine-2,8-diamine], under setting [1], the 50% inhibitory concentration (IC50) is 0.1 to 0.2 µM. The same measure, in the same setting: then `CC1(Nc2ncc3nc(Nc4cc(Cl)cc(C(F)(F)F)c4)n(C4CCNCC4)c3n2)CC1` [Cpd 42, N8-(3-chloro-5-(trifluoromethyl)phenyl)-N2-(1-methylcyclopropyl)-9-(piperidin-4-yl)-9H-purine-2,8-diamine], with less than 0.1 µM; and `CC(C)(C)Nc1ncc2nc(Nc3cc(F)cc(F)c3)n(C3CCNCC3)c2n1` [Cpd 28, N2-tert-butyl-N8-(3,5-difluorophenyl)-9-(piperidin-4-yl)-9H-purine-2,8-diamine], with 0.1 to 0.2 µM; and `CC(C)Nc1ncc2nc(Nc3cc(F)cc(Cl)c3)n(C3CCNCC3)c2n1` [Cpd 63, N8-(3-chloro-5-fluorophenyl)-N2-isopropyl-9-(piperidin-4-yl)-9H-purine-2,8-diamine], with less than 0.1 µM. Turning to `CC1(Nc2ncc3nc(Nc4cccc(C(F)F)c4)n(C4CCNCC4)c3n2)CCOCC1` [Cpd 57, N8-(3-(difluoromethyl)phenyl)-N2-(4-methyltetrahydro-2H-pyran-4-yl)-9-(piperidin-4-yl)-9H-purine-2,8-diamine], under setting [1], the IC50 lay in the range of 0.5 to 1.2 µM.

As to `FC(F)(F)c1ccc(Nc2nc3cnc(NC4CCCC4)nc3n2C2CCNCC2)cc1Cl` [Cpd 92, N8-(3-chloro-4-(trifluoromethyl)phenyl)-N2-cyclopentyl-9-(piperidin-4-yl)-9H-purine-2,8-diamine], the IC50 under setting [1] was in the range of 0.2 to 0.5 µM. With `CC(C)(C)Nc1ncc2nc(Nc3cc(Cl)cc(Cl)c3)n(C3CCNCC3)c2n1` [Cpd 20, N2-tert-butyl-N8-(3,5-dichlorophenyl)-9-(piperidin-4-yl)-9H-purine-2,8-diamine], the IC50 under setting [1] was less than 0.1 µM. Turning to `CC(C)(C)Nc1ncc2nc(Nc3cccc(Cl)c3)n(CCn3ccnc3)c2n1` [Cpd 1, 9-(2-(1H-imidazol-1-yl)ethyl)-N2-tert-butyl-N8-(3-chlorophenyl)-9H-purine-2,8-diamine], the IC50 under setting [1] lay in the range of 0.2 to 0.5 µM. On the same count and under the same terms, next, `CC(C)Nc1ncc2nc(Nc3ccc(Cl)c(C(F)(F)F)c3)n(C3CCNCC3)c2n1` [Cpd 79, N8-(4-chloro-3-(trifluoromethyl)phenyl)-N2-isopropyl-9-(piperidin-4-yl)-9H-purine-2,8-diamine]: 0.1 to 0.2 µM; `CC(C)(C)Nc1ncc2nc(Nc3cc(Cl)cc(C(F)(F)F)c3)n(C3CCN(CCN)C3)c2n1` (stereo not shown) [Cpd 60, 9-(1-(2-aminoethyl)pyrrolidin-3-yl)-N2-tert-butyl-N8-(3-chloro-5-(trifluoromethyl)phenyl)-9H-purine-2,8-diamine]: 0.2 to 0.5 µM; `FC(F)(F)c1cc(Cl)cc(Nc2nc3cnc(NC4CC4)nc3n2C2CCNCC2)c1` [Cpd 40, N8-(3-chloro-5-(trifluoromethyl)phenyl)-N2-cyclopropyl-9-(piperidin-4-yl)-9H-purine-2,8-diamine]: less than 0.1 µM. The same measure, in the same setting: then `CC(C)(C)Nc1ncc2nc(Nc3cncc(Cl)c3)n(C3CCNCC3)c2n1` [Cpd 30, N2-tert-butyl-N8-(5-chloropyridin-3-yl)-9-(piperidin-4-yl)-9H-purine-2,8-diamine], with 0.5 to 1.2 µM.

In the case of `CC(C)(C)Nc1ncc2nc(Nc3cccc(C(F)(F)F)c3)n(CC3CCNCC3)c2n1` [Cpd 23, N2-tert-butyl-9-(piperidin-4-ylmethyl)-N8-(3-(trifluoromethyl)phenyl)-9H-purine-2,8-diamine], under setting [1], the IC50 was 0.5 to 1.2 µM. As for `CC(C)Nc1ncc2nc(Nc3cc(Cl)cc(Cl)c3)n(C3CCNCC3)c2n1` [Cpd 43, N8-(3,5-dichlorophenyl)-N2-isopropyl-9-(piperidin-4-yl)-9H-purine-2,8-diamine], the half-inhibitory concentration (IC50) under setting [1] was less than 0.1 µM. The same measure, in the same setting: then `CC1(Nc2ncc3nc(Nc4cc(Cl)cc(C(F)(F)F)c4)n(C4CCNCC4)c3n2)CCCC1` [Cpd 68, N8-(3-chloro-5-(trifluoromethyl)phenyl)-N2-(1-methylcyclopentyl)-9-(piperidin-4-yl)-9H-purine-2,8-diamine], with less than 0.1 µM. For the compound `CC(C)(C)Nc1ncc2nc(Nc3cc(Cl)cc(C(F)(F)F)c3)n(CC3CCNC3)c2n1` (stereo not shown) [Cpd 98, N2-tert-butyl-N8-(3-chloro-5-(trifluoromethyl)phenyl)-9-(pyrrolidin-3-ylmethyl)-9H-purine-2,8-diamine], the IC50 lay in the range of 0.2 to 0.5 µM.

Regarding `Clc1cc(Cl)cc(Nc2nc3cnc(NC4CC4)nc3n2C2CCNCC2)c1` [Cpd 34, N2-cyclopropyl-N8-(3,5-dichlorophenyl)-9-(piperidin-4-yl)-9H-purine-2,8-diamine], under setting [1], the IC50 was 0.2 to 0.5 µM. On the same count and under the same terms, next, `CC1(Nc2ncc3nc(Nc4ccc(C(F)(F)F)cc4)n(C4CCNCC4)c3n2)CCOCC1` [Cpd 15, N2-(4-methyltetrahydro-2H-pyran-4-yl)-9-(piperidin-4-yl)-N8-(4-(trifluoromethyl)phenyl)-9H-purine-2,8-diamine]: 0.1 to 0.2 µM. Take `CC(C)(C)Nc1ncc2nc(Nc3ccc(C#N)cc3)n(C3CCNCC3)c2n1` [Cpd 14, 4-(2-(tert-butylamino)-9-(piperidin-4-yl)-9H-purin-8-ylamino)benzonitrile]: under setting [1], the half-inhibitory concentration (IC50) was 0.5 to 1.2 µM. Same read-out and setting: next, `FC(F)(F)c1cccc(Nc2nc3cnc(NC4CCOCC4)nc3n2C2CCNCC2)c1` [Cpd 46, 9-(piperidin-4-yl)-N2-(tetrahydro-2H-pyran-4-yl)-N8-(3-(trifluoromethyl)phenyl)-9H-purine-2,8-diamine]: 0.5 to 1.2 µM; `CC(C)(C)Nc1ncc2nc(Nc3ccc(Cl)c(C(F)(F)F)c3)n(C3CCNCC3)c2n1` [Cpd 88, N2-tert-butyl-N8-(4-chloro-3-(trifluoromethyl)phenyl)-9-(piperidin-4-yl)-9H-purine-2,8-diamine]: 0.1 to 0.2 µM; `CC1(Nc2ncc3nc(Nc4cc(F)cc(Cl)c4)n(C4CCNCC4)c3n2)CCOCC1` [Cpd 56, N8-(3-chloro-5-fluorophenyl)-N2-(4-methyltetrahydro-2H-pyran-4-yl)-9-(piperidin-4-yl)-9H-purine-2,8-diamine]: less than 0.1 µM. For `CC1(Nc2ncc3nc(Nc4cccc(C(F)(F)F)c4)n(CCC4CCNC4)c3n2)CCOCC1` (stereo not shown) [Cpd 58, N2-(4-methyltetrahydro-2H-pyran-4-yl)-9-(2-(pyrrolidin-3-yl)ethyl)-N8-(3-(trifluoromethyl)phenyl)-9H-purine-2,8-diamine], the IC50 under setting [1] lay within 0.2 to 0.5 µM. Consider `CC1(Nc2ncc3nc(Nc4cccc(C(F)(F)F)c4)n(C4CCNCC4)c3n2)CCCC1` [Cpd 59, N2-(1-methylcyclopentyl)-9-(piperidin-4-yl)-N8-(3-(trifluoromethyl)phenyl)-9H-purine-2,8-diamine], for which the IC50 under setting [1] was less than 0.1 µM. In the case of `CC1(Nc2ncc3nc(Nc4cc(Cl)cc(Cl)c4)n(C4CCNCC4)c3n2)CCOCC1` [Cpd 61, N8-(3,5-dichlorophenyl)-N2-(4-methyltetrahydro-2H-pyran-4-yl)-9-(piperidin-4-yl)-9H-purine-2,8-diamine], under setting [1], the concentration for half-maximal inhibition (IC50) was less than 0.1 µM. Take `CC(C)(C)Nc1ncc2nc(Nc3cccc(Cl)c3F)n(C3CCNCC3)c2n1` [Cpd 47, N2-tert-butyl-N8-(3-chloro-2-fluorophenyl)-9-(piperidin-4-yl)-9H-purine-2,8-diamine]: under setting [1], the IC50 lay in the range of 0.5 to 1.2 µM.

On to `CC1(Nc2ncc3nc(Nc4cccc(Cl)c4)n(CCN4CCCCC4)c3n2)CCOCC1` [Cpd 16, N8-(3-chlorophenyl)-N2-(4-methyltetrahydro-2H-pyran-4-yl)-9-(2-(piperidin-1-yl)ethyl)-9H-purine-2,8-diamine], for which the IC50 under setting [1] fell in the range of 0.5 to 1.2 µM.
